According to paper PMC5521769, “Identification of odorant binding proteins and chemosensory proteins in Microplitis mediator as well as functional characterization of chemosensory protein 3” (PLoS ONE, 2017):
Read-outs that look alike come from different tables or passages of the source.

Assays:
recombinant MmedCSP3 = recombinant MmedCSP3 (Microplitis mediator, UniProt A0A219T7S8); assay: biochemical; assay type: binding
Experimental: The bis-ANS and all compounds were dissolved in HPLC purity-grade methanol with a concentration of 1 mM.
The bound chemical was evaluated based on its fluorescence intensity with the assumption that the protein was 100% active with a stoichiometry of 1: 1 (protein: ligand) saturation. The binding curves were linearized using a Scatchard plot, and the dissociation constants of the competitors were calculated from the corresponding IC50 values based on the following equation: Ki = [IC50] / (1 + [bis-ANS] / Kbis-ANS), where [bis-ANS] is the free concentration of bis-ANS and Kbis-ANS is the dissociation constant of the complex protein / bis-ANS [33].

[1] = tested on: MmedOBPs and MmedCSPs (MmdeOBP1–10, MmedCSP1); design: method as in PMID 20388293; details: MmdeOBP1–10 and MmedCSP1; ref [22], [23]; cited from earlier work
M. mediator = tested on: M. mediator; design: method as in PMID 20388293; details: ref [22], [23]; cited from earlier work
[2] = protein and bis-ANS at 2 μM, competitor 2–40 μM, 50 mM Tris-HCl pH 7.4, mean ± SD, text values are ranges over the named group, read-out: Ki, dissociation constant

Sequence of recombinant MmedCSP3 (A0A219T7S8 entry or part of it): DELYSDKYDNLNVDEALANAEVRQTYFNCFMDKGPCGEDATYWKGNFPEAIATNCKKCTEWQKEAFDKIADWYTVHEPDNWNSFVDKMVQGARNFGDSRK

For CCCCCCCCCCCCCCCC(=O)O [Palmitic acid], the Ki (recombinant MmedCSP3) was 22.2 ± 1.82 µM.
In the case of CC/C=C\CCOC(C)=O [(Z)-3-hexenyl acetate], the “binding affinity to MmedOBPs and MmedCSPs” value [1] is given as “no any binding affinity” and the “electrophysiological and behavioral responses of M. mediator” value (M. mediator) is given as “could elicit electrophysiological and behavioral responses”.
CC/C=C/CCCCCCCCCCOC(C)=O [trans-11-tetradecenyl acetate] gave a Ki (recombinant MmedCSP3; [2]) of 18.8 ± 2.06 µM.
Compound C=C/C=C(\C)CC/C=C(\C)CCC=C(C)C [TMTT, (3E, 7E)-4,8, 12-trimethyltrideca-1,3,7, 11-tetraene] has a Ki (recombinant MmedCSP3; [2]) of 26.8 ± 1.27 µM.
In the case of COC(=O)c1ccccc1O [Methyl salicylate], the Ki (recombinant MmedCSP3) is reported as 39.22 ± 0.25 µM.
In the case of CCC/C=C/C=O [(E)-2-hexen-1-al], the “binding affinity to MmedOBPs and MmedCSPs” value [1] is given as “no any binding affinity” and the “electrophysiological and behavioral responses of M. mediator” value (M. mediator) is given as “could elicit electrophysiological and behavioral responses”.
Compound CCCC/C=C\CCCCCCCCCCO [cis-11-hexadecanol] has a Ki (recombinant MmedCSP3; [2]) of 17.6 ± 1.19 µM.
In the case of CCCC/C=C\CCCCCCCCCC=O [cis-11-hexadecenyl Aldehyde, cis-11-hexadecenyl aldehyde], the Ki (recombinant MmedCSP3; [2]) is reported as 17.2 ± 1.67 µM.
For O=S(=O)(O)c1cccc2c(-c3ccc(Nc4ccccc4)c4c(S(=O)(=O)O)cccc34)ccc(Nc3ccccc3)c12 [bis-ANS, 4, 4’-dianilino-1,1’-binaphthyl-5,5’-sulfonic acid, reference compound], the Kd (recombinant MmedCSP3; 2 μM protein titrated with bis-ANS 2–16 μM, 50 mM Tris-HCl pH 7.4, read-out: dissociation constant of the MmedCSP3 / bis-ANS complexes) was 1.75 ± 0.42 µM.
Work on CCCCCCCC/C=C\CCCCCCCC(=O)O [Octadecenoic acid] yielded a Ki (recombinant MmedCSP3; [2]) of 18.2 ± 1.74 µM.
With CCCC(=O)OCC [Ethyl butyrate] the Ki (recombinant MmedCSP3; [2]) was 32.9 ± 7.43 µM.
